For orientation: IC50 means the concentration that inhibits the measured activity by half.

Where only a bound is given, the exact number is not on record here.

The subject of one assay is INFα induced pSTAT5. The experiment in a line: INFα induced pSTAT5 in human PBMC. The class given is cell-based. To be noted: Homo sapiens, PBMC, INFα 5000 units/ml, read-out: p-STAT5 IC50. The procedure: Fresh Human PBMCs were resuspended in RPMI 1640 medium with 10% FBS. Cells were seeded in a round bottom 96-well plate at the concentration of 200,000 cells/well. A 10-point dilution series of test compound (top dose 10 uM, 1:5 dilution) was added to the well using the liquid dispenser (Tecan D300e) and incubated for 1 hour at 37 C. Then human INFα recombinant protein (R&D Systems) was added to the well at the final concentration of 5000 units/ml and incubated for 15 minutes at 37 C. Cell lysates were prepared and analyzed by Phospho STAT3 (Tyr705) cellular kit (Cisbio) or Phospho STAT5 (Tyr693) Kit (Meso Scale Discovery) following manufacturer's protocol.
For calculation of the inhibition rate, the relative pSTAT signal of each well=pSTAT signal of each well−the average pSTAT signal of baseline.
The inhibition %=(the average pSTAT signal of INFα treatment wells—the relative of pSTAT signal in each compound containing well)/the average pSTAT signal of INFα treatment wells * 100%
The curve was plotted as the inhibition % (y-axis) vs. compounds concentration (x-axis) and was fitted with log(inhibitor) vs. normalized response—Variable slope by GraphPad Prism7.0.
Regarding `CNc1cc2nn3c(cnc13)C(=O)NCCCOc1cnc(OC)c(c1)N2` [Example 5], the IC50 came to 151 nM.
As for `CNc1cc2nn3c(cnc13)C(=O)NCC(C)OCc1ccc(OC)c(c1)N2` (centres unmarked) [Example 8], the IC50 is 13.9 nM.
For the compound `CNc1cc2nn3c(cnc13)C(=O)NCCOCc1cccc(OC)c1N2` [Example 9], the IC50 amounted to 923 nM.
With `CNc1cc2nn3c(cnc13)C(=O)N[C@@H](C)COCc1ccc(OC)c(c1)N2` [Example 11], the IC50 was found to be 436 nM.
As for `CNc1cc2nc3c(cnn13)C(=O)NC(C)COCc1ccc(OC)c(c1)N2` (centres unmarked) [Example 12], the half-maximal inhibitory concentration (IC50) is 2.2 nM.
As to `CNc1cc2nn3c(cnc13)C(=O)NCCOC(C)c1ccc(OC)c(c1)N2` (centres unmarked) [Example 13], the IC50 is 460 nM.
`CNc1cc2nn3c(cnc13)C(=O)N[C@H](C)COCc1cnc(OC)c(c1)N2` [Example 14]: the IC50 was found to be 3 nM.
As to `CNc1cc2nn3c(cnc13)C(=O)NC(C)COCc1cc(c(OC)cc1F)N2` (centres unmarked) [Example 16], the IC50 was determined as 3.6 nM.
Regarding `CNc1cc2nn3c(cnc13)C(=O)N[C@H](C)COCc1cc(c(OC)cc1F)N2` [Example 17, (E)-3^4-fluoro-3^6-methoxy-7-methyl-1^8-(methylamino)-5-oxa-2,8-diaza-1(6,3)-imidazo[1,2-b]pyridazina-3(1,3)-benzenacyclononaphan-9-one], the IC50 came to 1 nM.
As to `CNc1cc2nn3c(cnc13)C(=O)N[C@H](C)COCc1cc(F)c(OC)c(c1)N2` [Example 18, (7R,E)-3^5-fluoro-3^6-methoxy-7-methyl-1^8-(methylamino)-5-oxa-2,8-diaza-1(6,3)-imidazo[1,2-b]pyridazina-3(1, 3)-benzenacyclononaphan-9-one], the IC50 was found to be 1.3 nM.
With `CNc1cc2nn3c(cnc13)C(=O)NC1(CC1)COCc1ccc(OC)c(c1)N2` [Example 20, (E)-6′-methoxy-8′-(methylamino)spiro[cyclopropane-1,7′-5-oxa-2,8-diaza-1(6,3)-imidazo[1,2-b]pyridazina-3(1,3)-benzenacyclononaphan]-9′-one], the IC50 came to 15.3 nM.
In the case of `CNc1cc2nn3c(cnc13)C(=O)NC(C)CCn1ncc3cc(OC)c(cc31)N2` (centres unmarked) [Example 21, (E)-3^5-methoxy-6-methyl-1^8-(methylamino)-31H-2,7-diaza-1(6,3)-imidazo [1,2-b]pyridazina-3(6,1)-indazolacyclooctaphan-8-one], the IC50 stood at 102 nM.
Regarding `CNc1cc2nn3c(cnc13)C(=O)N[C@H]1C[C@H](C1)OCc1ccc(OC)c(c1)N2` [Example 22], the IC50 was 10.7 nM.
With `CNc1cc2nc3c(cnn13)C(=O)N[C@H](C)COCc1ccc(OC)c(c1)N2` [Example 25], the IC50 came out at 2.1 nM.
Same read-out and setting: for `CNc1cc2nc3c(cnn13)C(=O)N[C@H](C)COCc1cc(c(OC)cn1)N2` [Example 27] the value was 7.2 nM; for `CNc1cc2nc3c(cnn13)C(=O)N[C@H](C)COCc1cc(c(=O)n(-c3ccccn3)c1)N2` [Example 28], 8.3 nM.
Consider `CNc1cc2nc3c(cnn13)C(=O)N[C@H](C)COCc1cc(c3nn(C)cc3c1)N2` [Example 29], for which the IC50 turned out to be 3.1 nM.
Regarding `CNc1cc2nc3c(cnn13)C(=O)N[C@@H](C)C(C)OCc1ccc(OC)c(c1)N2` (some centres unmarked) [Example 30], the half-maximal inhibitory concentration (IC50) is more than 200 nM.
For `CNc1cc2nc3c(cnn13)C(=O)N[C@H](C)COCc1cc(c3oc(C)nc3c1)N2` [Example 34], the IC50 amounted to 2.5 nM.
As for `CNc1cc2nc3c(cnn13)C(=O)N[C@H](C)COCc1cc(c3nn(C)nc3c1)N2` [Example 35], the IC50 was found to be 1.7 nM.
With `CNc1cc2nc3c(cnn13)C(=O)N[C@H](C)COCc1cc(c3nnn(C)c3c1)N2` [Example 36], the IC50 worked out at 0.7 nM.
Consider `CNc1cc2nc3c(cnn13)C(=O)N[C@H](C)COCc1cc(c3c(c1)nnn3C)N2` [Example 37], for which the IC50 came out at 90.1 nM.
On to `CNc1cc2nc3c(cnn13)C(=O)N[C@H](C)COc1ccc(OC)c(c1)N2` [Example 38], for which the half-inhibitory concentration (IC50) was more than 200 nM.
As to `CNc1cc2nc3c(cnn13)C(=O)N[C@H](C)COCc1ccc(C#N)c(c1)N2` [Example 40], the IC50 is 2.4 nM.
As for `CNC(=O)c1ccc2cc1Nc1cc(NC)n3ncc(c3n1)C(=O)N[C@H](C)COC2` [Example 41], the IC50 stood at 3.6 nM.
Take `CNc1cc2nn3c(cnc13)C(=O)N[C@H](C)COCc1ccc(OC)c(c1)N2` [Example 42]: the IC50 turned out to be 13.6 nM.
For `CNc1cc2nc3c(cnn13)C(=O)N[C@H](C)COCc1ccc(OC(F)(F)F)c(c1)N2` [Example 43], the IC50 stood at 3.8 nM.
With `CNc1cc2nc3c(cnn13)C(=O)N[C@H](C)COCc1cc(C#N)cc(c1)N2` [Example 44], the IC50 is 2 nM.
Still for that read-out and setting: for `CNc1cc2nc3c(cnn13)C(=O)N[C@H](C)COCc1cc(cc(OC)c1)N2` [Example 45] the value was 1.1 nM; for `CNc1cc2nc3c(cnn13)C(=O)N[C@H](C)COCc1cc(F)cc(c1)N2` [Example 46], 2.8 nM.
Turning to `CNc1cc2nc3c(cnn13)C(=O)N[C@H](C)COCc1cc(Br)c(OC)c(c1)N2` [Example 48], the IC50 worked out at 16.7 nM.
With `CNc1cc2nc3c(cnn13)C(=O)N[C@H](C)COCc1cc(nc(N3CCCC3=O)c1)N2` [Example 49], the 50% inhibitory concentration (IC50) was determined as 1.7 nM.
In the case of `CNc1cc2nn3c(cnc13)C(=O)N[C@H](C)COCc1nc(C)cc(n1)N2` [Example 50, (7R,E)-3^6,7-dimethyl-1^8-(methylamino)-5-oxa-2,8-diaza-1(6,3)-imidazo[1,2-b]pyridazina-3(4,2)-pyrimidinacyclononaphan-9-one], the IC50 is more than 1000 nM.
The same measure, in the same setting: for `CNc1cc2nc3c(cnn13)C(=O)N[C@H](C)COCc1cc(c(OC)cc1F)N2` [Example 52, (R, 1^3E, 1^4E)-3^4-fluoro-3^6-methoxy-7-methyl-1^7-(methylamino)-5-oxa-2,8-diaza-1(5,3)-pyrazolo[1,5-a]pyrimidina-3(1,3)-benzenacyclononaphan-9-one] the value was 5.9 nM; for `CNc1cc2nc3c(cnn13)C(=O)N[C@H](C)COCc1cc(c3cn(C)nc3c1)N2` [Example 53, (R, 1^3E, 1^4E, 3^4E)-3^2,7-dimethyl-1^7-(methylamino)-3^2H-5-oxa-2,8-diaza-1(5,3)-pyrazolo[1,5-a]pyrimidina-3(4,6)-indazolacyclononaphan-9-one], 9.4 nM.
For `CNc1cc2nc3c(cnn13)C(=O)N[C@H](C)COCc1cc(c3cnn(C)c3c1)N2` [Example 54, (R, 1^3E, 1^4E)-31,7-dimethyl-1^7-(methylamino)-31H-5-oxa-2,8-diaza-1(5,3)-pyrazolo[1,5-a]pyrimidina-3(4,6)-indazolacyclononaphan-9-one], the IC50 turned out to be 0.3 nM.

The same assay, now with this note: INFα 5000 units/ml, read-out: p-STAT5 IC50.
Consider `CNc1cc2nc3c(cnn13)C(=O)N[C@H](C)C(C)OCc1ccc(OC)c(c1)N2` (single isomer, unassigned) [Example 32], for which the IC50 was determined as 0.7 nM.
Still for that read-out and setting: the figure for `CNc1cc2nc3c(cnn13)C(=O)N[C@H](C)C(C)OCc1ccc(OC)c(c1)N2` (single isomer, unassigned) [Example 33] is 42.8 nM.
As to `CNc1cc2nc3c(cnn13)C(=O)N[C@H](C)COCc1cnc(OC)c(c1)N2` [Example 26], the IC50 was more than 200 nM.
Take `CNc1cc2nc3c(cnn13)C(=O)N[C@@H](C)C(C)OCc1ccc(OC)c(c1)N2` (some centres unmarked) [Example 31]: the IC50 is more than 200 nM.
For the compound `CNc1cc2nc3c(cnn13)C(=O)N[C@H](C)COCc1cnc(OC)c(c1)N2` [Example 47], the IC50 was determined as 2.4 nM.

These data come from patent US20250276977A1, “TYK2 INHIBITORS AND USES THEREOF” (Alumis Inc., priority 2019, published 2025).
